Experimental data as given in patent publication US20260083687A1, “COMPOUNDS FOR REDUCING LACTATION AND IMPROVING HEALTH” (AHV International B.V., priority 2022, published 2026).
Where “and” joins values, the source holds several entries; their conditions need not be identical. Equal entries are not always repeated. Where two headings read alike, the source gives them in different places.

Tests used:
[1] = tested on: cows (Holstein Friesians); assay: Treatment with DPD analogs (organosulfur compounds) and milk yield (Example 8); type: in vivo, cow; details: for % reduction after 24 h average (milk yield): 24 h after one oral gel capsule; for % reduction after 24 h average (milk yield) / % reduction after 48 h average (milk yield) / % reduction after 72 h average (milk yield) / % reduction after 96 h average (milk yield) / average reduction after 24, 48 and 72 h (%) (milk yield) / Average reduction after 24 and 48 h (%) (milk yield): dose equimolar to 80 ml di-n-propyl disulfide; for % reduction after 24 h average (milk yield) / % reduction after 48 h average (milk yield) / % reduction after 72 h average (milk yield) / % reduction after 96 h average (milk yield): negative value = increase in yield; for % reduction after 48 h average (milk yield): 48 h after one oral gel capsule; for % reduction after 72 h average (milk yield): 72 h after one oral gel capsule; for % reduction after 96 h average (milk yield): 96 h after one oral gel capsule; for average reduction after 24, 48 and 72 h (%) (milk yield): average of 24, 48 and 72 h after one oral gel capsule; for Average reduction after 24 and 48 h (%) (milk yield): average of 24 and 48 h after one oral gel capsule; for Milk yield (kg) Last milking: before administration, single oral gel capsule dose per cow (ml unless g): diethyl disulfide 63, di-n-propyl disulfide 80, diisopropyl disulfide 160, di-n-butyl disulfide 100, dibenzyl disulfide 102, diethyl sulfide 55, di-n-propyl sulfide 72, diisopropyl sulfide 74, di-n-butyl sulfide 90, dibenzyl sulfide 96 g, diphenyl sulfide 85, di-n-propyl trisulfide 98, di-n-propyl sulfone 6; for Milk yield (kg) Last milking / Average reduction after 24 and 48 h (%) / Milk yield (kg) After 24 h / Milk yield (kg) After 48 h / Milk yield (kg) After 72 h / Milk yield (kg) After 96 h / average reduction after 24, 48 and 72 h (%) / % reduction after 24 h / % reduction after 48 h / % reduction after 72 h / % reduction after 96 h: individual cows; for Average reduction after 24 and 48 h (%) / Milk yield (kg) After 24 h / Milk yield (kg) After 48 h / Milk yield (kg) After 72 h / Milk yield (kg) After 96 h / average reduction after 24, 48 and 72 h (%) / % reduction after 24 h / % reduction after 48 h / % reduction after 72 h / % reduction after 96 h: dose per compound as listed in E284; for % reduction after 24 h / % reduction after 48 h / % reduction after 72 h / % reduction after 96 h: vs milk yield before treatment
Procedure: Study design. 36 cows (Holstein Friesians) from 2 farms were used. The feed of the cows was composed of TMR, including corn and grass silage, supplemented with soya and minerals. […] The cows were milked in a milk robot. […] The cows were milked twice a day. The cows were housed in free stables. […] Placebo treatment corresponded to administration of two gel capsules containing 180 ml water.
For this study dosages synthetic compounds (>96% purity) as indicated in table 17 were administered to cows. The objective of this study was to compare the activity of a corresponding dose of the compounds expressed in mol, based on the number of moles that is present in 80 ml di-n-propyl disulfide at 20° C. The number of moles was converted to ml or grams of the tested compounds. For this purpose, the molecular weight and specific density were used in the calculations. The compounds were formulated in the gel capsules as indicated in the previous examples.
Before the various dosages were administered, the milk yields were monitored for at least 5 days.

[2] = tested on: cows (Holstein Friesians)
Procedure: Study design. Twelve cows (Holstein Friesians) from 1 farm were used. The start of the dry period of every cow was between 40 to 60 days before calving. The cows were milked twice a day at fixed times and the cows were selected on a milk production of >12.5 litres/day 24 hours before PTS administering took place. […] No extra measures were taken to stimulate dry-off, such as changes in feed ration or changes in milking frequency. The cows were milked twice a day. The cows were housed in free stables. A porcine gelatine capsule with PTS or placebo gel capsule with water were administered 7 to 14 days before the start of the dry-off period.
For this study various dosages synthetic PTS (>98% purity) were administered to cows with a milk yield of at least 12.5 kg milk per day. The following dosages were applied: 0, 10, 20, 40 ml of pure PTS. For each dosage 2 cows were used.
Before the various dosages were administered the milk yield was monitored for 14 days. The gel capsules were orally administered by a bolus shooter, the gel capsule for the placebo group contained tap water. Administering of a capsule took place between the morning and afternoon milking. On t=14 days the PTS-containing capsules and the placebo capsules were administered and the milk yield was monitored 48 hours more.

## O=S(=O)(Cc1ccccc1)SCc1ccccc1 [Dibenzyl thiosulfonate, di-benzyl thiosulfonate]
[1]
  % reduction after 24 h average (milk yield): 48%
  % reduction after 48 h average (milk yield): 48%
  % reduction after 72 h average (milk yield): 28%
  % reduction after 96 h average (milk yield): 15%
  average reduction after 24, 48 and 72 h (%) (milk yield): 41.3%
  Average reduction after 24 and 48 h (%) (milk yield): 48%
  Milk yield (kg) Last milking: 27.8 kg
  Average reduction after 24 and 48 h (%): 48%
  Milk yield (kg) After 24 h: 14.5 kg
  Milk yield (kg) After 48 h: 14.6 kg
  Milk yield (kg) After 72 h: 19.9 kg
  Milk yield (kg) After 96 h: 23.5 kg
  average reduction after 24, 48 and 72 h (%): 41.3%
  % reduction after 24 h: 48%
  % reduction after 48 h: 48%
  % reduction after 72 h: 28%
  % reduction after 96 h: 15%

## CCCS(=O)(=O)CCC [Di-n-propyl sulfone, di-n-propyl sulfone]
[1]
  Milk yield (kg) After 24 h: 13.7 kg
  Milk yield (kg) After 48 h: 13.8 kg
  Milk yield (kg) After 72 h: 15.2 kg
  Milk yield (kg) After 96 h: 18.7 kg

## CC(C)SSC(C)C [Diisopropyl disulfide, di-isopropyl disulfide]
[1]
  Milk yield (kg) After 24 h: 13.6 kg
  Milk yield (kg) After 48 h: 15.4 kg
  Milk yield (kg) After 72 h: 18.5 kg
  Milk yield (kg) After 96 h: 19.5 kg

## [O-][S+](Cc1ccccc1)SCc1ccccc1 (stereo not shown) [Dibenzyl thiosulfinate, di-benzyl thiosulfinate]
[1]
  % reduction after 24 h average (milk yield): 38%
  % reduction after 48 h average (milk yield): 37%
  % reduction after 72 h average (milk yield): 27.5%
  % reduction after 96 h average (milk yield): 5%
  average reduction after 24, 48 and 72 h (%) (milk yield): 34.2%
  Average reduction after 24 and 48 h (%) (milk yield): 37.5%
  Milk yield (kg) Last milking: 30.3 kg and 27.9 kg
  Average reduction after 24 and 48 h (%): 32.5% and 42.5%
  Milk yield (kg) After 24 h: 20.4 kg and 15.6 kg
  Milk yield (kg) After 48 h: 20.7 kg and 15.9 kg
  Milk yield (kg) After 72 h: 24.3 kg and 17.9 kg
  Milk yield (kg) After 96 h: 28.1 kg and 27.3 kg
  average reduction after 24, 48 and 72 h (%): 28.5% and 39.7%
  % reduction after 24 h: 33% and 43%
  % reduction after 48 h: 32% and 42%
  % reduction after 72 h: 20% and 35%
  % reduction after 96 h: 7% and 3%

## CCCS[S+]([O-])CCC (stereo not shown) [PTS, di-n-propyl thiosulfinate]
[1]
  % reduction after 24 h average (milk yield): 45%
  % reduction after 48 h average (milk yield): 44%
  % reduction after 72 h average (milk yield): 23%
  % reduction after 96 h average (milk yield): 10%
  average reduction after 24, 48 and 72 h (%) (milk yield): 37%
  Average reduction after 24 and 48 h (%) (milk yield): 45%
  Milk yield (kg) Last milking: 28.6 kg and 32.7 kg
  Average reduction after 24 and 48 h (%): 49% and 40%
  Milk yield (kg) After 24 h: 14.5 kg and 19.4 kg
  Milk yield (kg) After 48 h: 14.9 kg and 20 kg
  Milk yield (kg) After 72 h: 23.4 kg and 23.9 kg
  Milk yield (kg) After 96 h: 27.2 kg and 27.8 kg
  average reduction after 24, 48 and 72 h (%): 39% and 35.7%
  % reduction after 24 h: 49% and 40%
  % reduction after 48 h: 48% and 39%
  % reduction after 72 h: 18% and 27%
  % reduction after 96 h: 5% and 15%
[2]; 20 ml PTS
  effect on milk yield compared to the milk yield before treatment: clear lowering on milk yield
[2]; 40 and 60 ml PTS
  effect on milk yield/day: visible
[2]; 40 ml PTS given after last milking on day 0, day 0, individual cows
  Milk yield: 32.4 kg and 28.4 kg
[2]; 40 ml PTS given on day 0, day 1, individual cows
  Milk yield: 22.4 kg and 21.9 kg
[2]; 40 ml PTS given on day 0, day 2, individual cows
  Milk yield: 24.4 kg and 23.4 kg
[2]; 40 ml PTS given on day 0, day 3, individual cows
  Milk yield: 28.9 kg and 26.4 kg
[2]; 40 ml PTS given on day 0, day 4, individual cows
  Milk yield: 32.2 kg and 27.1 kg
[2]; 40 ml PTS given on day 0, day 5, individual cows
  Milk yield: 31.2 kg and 28.2 kg
[2]; 40 ml PTS given on day 0, day 6, individual cows
  Milk yield: 32.0 kg and 28.3 kg
[2]; 40 ml PTS given on day 0, day −1, individual cows
  Milk yield: 31.9 kg and 27.7 kg
[2]; 40 ml PTS given on day 0, day −2, individual cows
  Milk yield: 32.2 kg and 28.9 kg
[2]; 40 ml PTS given on day 0, day −3, individual cows
  Milk yield: 33.3 kg and 28.1 kg
[2]; 40 ml PTS given on day 0, day −4, individual cows
  Milk yield: 31.9 kg and 28.5 kg
[2]; 40 ml PTS given on day 0, day −5, individual cows
  Milk yield: 31.4 kg and 27.9 kg
[2]; 40 ml PTS given on day 0, day −6, individual cows
  Milk yield: 33.2 kg and 28.3 kg
[2]; 40 ml PTS, individual cows
  Average milking/day of last 7 days before administration: 32.3 kg and 28.3 kg
  % reduction after 24 h: 31% and 23%
  % reduction after 48 h: 24% and 17%
  % reduction after 72 h: 11% and 7%
  Average reduction 24 and 48 h (%): 28% and 20%
  Milk yield After 24 h: 22.4 kg and 21.9 kg
  Milk yield After 48 h: 24.4 kg and 23.4 kg
  Milk yield After 72 h: 28.9 kg and 26.4 kg
  Milk yield After 96 h: 32.2 kg and 27.1 kg
  Milk yield After 120 h: 31.2 kg and 28.2 kg
[2]; 60 ml PTS given after last milking on day 0, day 0, individual cows
  Milk yield: 32.4 kg and 29.3 kg
[2]; 60 ml PTS given on day 0, day 1, individual cows
  Milk yield: 19.4 kg and 14.5 kg
[2]; 60 ml PTS given on day 0, day 2, individual cows
  Milk yield: 20.0 kg and 14.9 kg
[2]; 60 ml PTS given on day 0, day 3, individual cows
  Milk yield: 23.9 kg and 23.4 kg
[2]; 60 ml PTS given on day 0, day 4, individual cows
  Milk yield: 27.8 kg and 27.2 kg
[2]; 60 ml PTS given on day 0, day 5, individual cows
  Milk yield: 31.6 kg and 28.3 kg
[2]; 60 ml PTS given on day 0, day 6, individual cows
  Milk yield: 32.2 kg and 27.4 kg
[2]; 60 ml PTS given on day 0, day −1, individual cows
  Milk yield: 32.2 kg and 28.1 kg
[2]; 60 ml PTS given on day 0, day −2, individual cows
  Milk yield: 33.2 kg and 28.3 kg
[2]; 60 ml PTS given on day 0, day −3, individual cows
  Milk yield: 31.9 kg and 27.4 kg
[2]; 60 ml PTS given on day 0, day −4, individual cows
  Milk yield: 33.5 kg and 29.6 kg
[2]; 60 ml PTS given on day 0, day −5, individual cows
  Milk yield: 32.4 kg and 28.3 kg
[2]; 60 ml PTS given on day 0, day −6, individual cows
  Milk yield: 33.4 kg and 28.9 kg
[2]; 60 ml PTS, individual cows
  Average milking/day of last 7 days before administration: 28.6 kg and 32.7 kg
  % reduction after 24 h: 51% and 40%
  % reduction after 48 h: 48% and 39%
  % reduction after 72 h: 18% and 27%
  % reduction after 96 h: 5% and 15%
  Average reduction 24 and 48 h (%): 50% and 40%
  Milk yield After 24 h: 14.5 kg and 19.4 kg
  Milk yield After 48 h: 14.9 kg and 20 kg
  Milk yield After 72 h: 23.4 kg and 23.9 kg
  Milk yield After 96 h: 27.2 kg and 27.8 kg
  Milk yield After 120 h: 28.3 kg and 31.6 kg
[2]; PTS
  time to recovery of milk yield after administration: 3 to 4 days
[2]; bovine, in vivo
  damage to the udder: does not reduce milk yield because of damaging the udder

## di-isopropyl thiosulfonate [Diisopropyl thiosulfonate]
[1]
  % reduction after 24 h average (milk yield): 28%
  % reduction after 48 h average (milk yield): 26%
  % reduction after 72 h average (milk yield): 9%
  % reduction after 96 h average (milk yield): 0%
  average reduction after 24, 48 and 72 h (%) (milk yield): 21%
  Average reduction after 24 and 48 h (%) (milk yield): 27%
  Milk yield (kg) Last milking: 28.9 kg
  Average reduction after 24 and 48 h (%): 27%
  Milk yield (kg) After 24 h: 20.8 kg
  Milk yield (kg) After 48 h: 21.4 kg
  Milk yield (kg) After 72 h: 26.3 kg
  Milk yield (kg) After 96 h: 28.8 kg
  average reduction after 24, 48 and 72 h (%): 21%
  % reduction after 24 h: 28%
  % reduction after 48 h: 26%
  % reduction after 72 h: 9%
  % reduction after 96 h: 0%
